Measurements: patent publication US7192931B2, “Treatment of demyelinating diseases” (Neuren Pharmaceuticals Ltd., priority 2000, dated 2007)

Legend:
[1] = tested on: oligodendrocytes; experiment: Oligodendrocyte loss by CNPase immunostaining of dorsal columns; type: in vivo, mouse; details: 31 for rat IgG and 26 for PBS treated control mice
From the text: Frozen sections from lumbar spinal cord (10 μm) were acetone-fixed and immunostained for oligodendrocyte content with an antibody against CNPase (Sigma; diluted 1:100); for axonal damage with an antibody against non-phosphorylated neurofilament-H (SM 1-32; Stemberger Monoclonals Incorporated, Lutherville, Md., USA; diluted 1:1000), and for GluR2 and NR1 content using mouse mAbs obtained from Zymed Laboratories Inc., Carlton, San Francisco, Calif. Antibody staining was visualized with an avidin:biotinylated enzyme complex (Vector Laboratories, Burlingame, Calif., USA). Sections were viewed under a light microscope, and cells stained with the anti-CNPase and SM 1-32 antibodies were counted.
To evaluate the effects of the different treatment regimes on the loss of oligodendrocytes, a key cellular target in demyelinating diseases of the CNS, oligodendrocytes were enumerated by immunohistochemical staining of spinal cord sections and the number of oligodendrocytes within the dorsal columns of […] transverse sections were counted (FIG. 5B), and reductions in oligodendrocyte numbers were calculated and expressed as % loss of oligodendrocytes per dorsal section (FIG. 5C). […]

[2] = tested on: EAE; details: Smith et al., 2000, Pitt et al.; cited from earlier work
[3] = tested on: oligodendrocytes; details: Smith et al., 2000, Pitt et al.; cited from earlier work
[4] = tested on: hippocampus neurons; details: Saura et al., 1999; cited from earlier work
[5] = tested on: N-methyl-D-aspartate (NMDA) receptor; details: U.S. Pat. No. 5,804,550; cited from earlier work

| Compound | % loss of oligodendrocytes per dorsal section [1] | pathogenesis of EAE [2] | excitotoxic effects of glutamate on oligodendrocytes [3] | neuronal death in the hippocampus injured by NMDA [4] | glutamate binding to the NMDA receptor [5] |
| --- | --- | --- | --- | --- | --- |
| NS(=O)(=O)c1cccc2c1c([N+](=O)[O-])cc1nc(O)c(O)nc12 [NBQX, 2,3-dihydroxy-6-nitro-7-sulfamoylbenzo(f)quinoxaline] | 13% | slightly ameliorates the pathogenesis of EAE | inhibits the excitotoxic effects of glutamate on oligodendrocytes | – | – |
| Gly-Pro-Glu [GPE] | 14% | – | – | prevents neuronal death | inhibits glutamate binding |
